From ChEMBL document CHEMBL1201862, “PubChem BioAssay data set” (2004)
The source made the active and inactive calls. Cut-off read from the data, not from the text of the source, for most assays here: actives have a measured EC50 and inactives only a lower limit.

Experiments:
[1] = test system: SN12K1; test: cells; type: functional; conditions: Homo sapiens
[2] = test system: P388; test: cells; type: functional; conditions: Mus musculus
[3] = biological target: T1, Hexokinase HKDC1 (Homo sapiens, UniProt Q2TB90); test: HKDC1 hexokinase inhibitors, dose response, biochemical, W721R variant (AID 504729); type: functional
T1 sequence (Q2TB90 whole entry): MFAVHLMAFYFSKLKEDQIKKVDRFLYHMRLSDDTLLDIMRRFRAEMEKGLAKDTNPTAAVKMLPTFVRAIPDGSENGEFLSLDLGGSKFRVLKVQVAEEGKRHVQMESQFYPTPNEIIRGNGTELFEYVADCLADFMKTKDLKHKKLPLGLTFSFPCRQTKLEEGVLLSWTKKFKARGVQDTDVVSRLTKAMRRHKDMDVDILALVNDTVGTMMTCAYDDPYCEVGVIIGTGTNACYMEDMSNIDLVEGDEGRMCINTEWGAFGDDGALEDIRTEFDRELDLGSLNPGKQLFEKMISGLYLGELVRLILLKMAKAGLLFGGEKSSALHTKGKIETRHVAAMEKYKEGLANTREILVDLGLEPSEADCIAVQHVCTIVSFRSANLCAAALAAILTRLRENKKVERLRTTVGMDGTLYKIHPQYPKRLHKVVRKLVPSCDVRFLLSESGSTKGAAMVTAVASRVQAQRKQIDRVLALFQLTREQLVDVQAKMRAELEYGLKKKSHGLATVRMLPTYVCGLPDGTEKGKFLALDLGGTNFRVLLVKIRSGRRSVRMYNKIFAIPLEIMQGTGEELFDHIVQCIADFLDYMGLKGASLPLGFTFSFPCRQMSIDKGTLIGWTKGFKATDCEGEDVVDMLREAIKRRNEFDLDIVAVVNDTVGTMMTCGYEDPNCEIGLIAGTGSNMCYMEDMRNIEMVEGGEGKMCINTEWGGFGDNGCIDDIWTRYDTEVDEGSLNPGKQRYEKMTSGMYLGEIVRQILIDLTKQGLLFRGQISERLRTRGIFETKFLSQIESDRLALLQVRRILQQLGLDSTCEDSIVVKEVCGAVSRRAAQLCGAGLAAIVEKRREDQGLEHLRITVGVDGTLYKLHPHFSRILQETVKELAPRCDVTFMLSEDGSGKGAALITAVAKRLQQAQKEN

[4] = biological target: Cytochrome P450 3A4 (Homo sapiens, UniProt P08684); conditions: Potency;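 note: confirmatory qHTS run detecting inhibitors and substrates of CYP3A4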
[5] = test system: P388/ADR; test: cells; type: functional; conditions: Mus musculus
[6] = biological target: Beta-galactosidase (Escherichia coli, UniProt Q8VNN2); type: functional
[7] = biological target: T2, Kappa-type opioid receptor (Homo sapiens, UniProt P41145); type: functional
[8] = biological target: T2, Kappa-type opioid receptor; type: functional; remark: listed apart in the source
[9] = inhibitors of firefly luciferase expression or activity, dose response, H4 neuroglioma cells, luminescence (AID 1990); type: functional, cell-based
[10] = biological target: T3, Protein RecA (Mycobacterium tuberculosis, UniProt P9WHJ3); test: Fluorescence Cell-Free Homogeneous Dose Retest to Identify Inhibitors of RecA-Intein Splicing Activity. [Related pubchem assays (depositor defined):AID2097, AID2223, AID489010, AID492950]; type: functional
T3 sequence (P9WHJ3 whole entry): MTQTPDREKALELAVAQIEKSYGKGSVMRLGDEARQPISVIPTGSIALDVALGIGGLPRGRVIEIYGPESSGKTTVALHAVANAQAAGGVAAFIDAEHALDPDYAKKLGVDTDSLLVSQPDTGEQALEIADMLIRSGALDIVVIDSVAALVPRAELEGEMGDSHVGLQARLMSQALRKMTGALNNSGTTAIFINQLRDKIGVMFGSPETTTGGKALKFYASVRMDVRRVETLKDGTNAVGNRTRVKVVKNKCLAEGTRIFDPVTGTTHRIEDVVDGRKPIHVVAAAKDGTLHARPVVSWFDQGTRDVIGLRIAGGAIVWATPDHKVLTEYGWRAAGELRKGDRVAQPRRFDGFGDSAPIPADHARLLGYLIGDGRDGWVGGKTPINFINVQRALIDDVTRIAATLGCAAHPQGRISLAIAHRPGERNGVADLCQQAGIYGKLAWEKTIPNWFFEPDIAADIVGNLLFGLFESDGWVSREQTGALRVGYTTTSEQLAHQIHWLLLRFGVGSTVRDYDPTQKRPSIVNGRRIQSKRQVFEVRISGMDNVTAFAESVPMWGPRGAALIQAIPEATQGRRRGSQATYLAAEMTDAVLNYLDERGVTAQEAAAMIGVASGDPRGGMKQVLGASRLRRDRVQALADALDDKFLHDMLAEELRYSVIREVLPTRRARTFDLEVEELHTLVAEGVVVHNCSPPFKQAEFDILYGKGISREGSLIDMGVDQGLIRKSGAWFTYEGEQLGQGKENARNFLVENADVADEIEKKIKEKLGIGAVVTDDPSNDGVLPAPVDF

[11] = test system: BJ; test: cytotoxicity toward BJ-TERT fibroblasts, dose response, cell-based, RAS-independent, luminescence (AID 1933); type: functional; conditions: Homo sapiens
[12] = biological target: T4, Microphthalmia-associated transcription factor (Homo sapiens, UniProt O75030); test: TRPM1 promoter luciferase signal decrease, dose response, MITF inhibitor project, cell-based, SK-MEL-5, cherry-picked, set 3 (AID 493073); type: functional
T4 sequence (O75030 whole entry): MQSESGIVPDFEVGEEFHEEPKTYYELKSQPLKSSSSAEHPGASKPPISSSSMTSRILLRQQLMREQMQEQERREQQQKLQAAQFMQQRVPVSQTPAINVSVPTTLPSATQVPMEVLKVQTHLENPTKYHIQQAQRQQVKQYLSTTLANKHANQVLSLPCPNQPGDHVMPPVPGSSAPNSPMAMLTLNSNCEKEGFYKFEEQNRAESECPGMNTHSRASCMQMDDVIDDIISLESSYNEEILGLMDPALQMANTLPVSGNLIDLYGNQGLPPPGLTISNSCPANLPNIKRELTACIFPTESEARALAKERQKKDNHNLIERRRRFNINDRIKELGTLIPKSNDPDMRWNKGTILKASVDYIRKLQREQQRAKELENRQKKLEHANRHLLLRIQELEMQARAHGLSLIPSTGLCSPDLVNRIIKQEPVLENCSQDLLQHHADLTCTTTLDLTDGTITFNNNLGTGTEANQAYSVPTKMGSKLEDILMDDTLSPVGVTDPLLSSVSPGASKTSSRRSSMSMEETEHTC

[13] = test system: BJ; test: cells; type: functional, cell-based; conditions: Homo sapiens
[14] = cytotoxicity toward DRD oncogenic fibroblasts, dose response, cell-based, non-viral oncogenic, luminescence (AID 1934); type: functional; conditions: Homo sapiens
[15] = test system: BJ; test: cytotoxicity toward BJ-TERT-LT-ST fibroblasts, dose response, cell-based, RAS-independent, luminescence (AID 1935); type: functional; conditions: Homo sapiens;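 note: BJ fibroblasts immortalized with TERT plus LT and ST oncogenes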
[16] = C. albicans growth with fluconazole, confirmation, fluorescence, retest (AID 2467); type: functional, cell-based
[17] = Luminescence Cell-Based Dose Response HTS to Identify Inhibitors of 5'UTR Stem-Loop Driven Prion Protein mRNA Translation in H4 Neuroglioblastoma Cells. [Related pubchem assays: 1827 (Project Summary), 1813 (Primary HTS)]; type: functional
[18] = NIH-3T3 fibroblast cytotoxicity, dose response, cytotoxicity control, cell-based, fluorescence, Alamar Blue, secondary assay (AID 2327); type: functional;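 note: NIH-3T3 mouse fibroblasts cultured with fluconazole at 8 µg/mL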
[19] = biological target: T5, Replicative DNA helicase DnaB (Mycobacterium tuberculosis, UniProt P9WMR3); test: DnaB intein splicing inhibitors, dose response, biochemical, cell-free fluorescence (AID 449749); type: functional
T5 sequence (P9WMR3 whole entry): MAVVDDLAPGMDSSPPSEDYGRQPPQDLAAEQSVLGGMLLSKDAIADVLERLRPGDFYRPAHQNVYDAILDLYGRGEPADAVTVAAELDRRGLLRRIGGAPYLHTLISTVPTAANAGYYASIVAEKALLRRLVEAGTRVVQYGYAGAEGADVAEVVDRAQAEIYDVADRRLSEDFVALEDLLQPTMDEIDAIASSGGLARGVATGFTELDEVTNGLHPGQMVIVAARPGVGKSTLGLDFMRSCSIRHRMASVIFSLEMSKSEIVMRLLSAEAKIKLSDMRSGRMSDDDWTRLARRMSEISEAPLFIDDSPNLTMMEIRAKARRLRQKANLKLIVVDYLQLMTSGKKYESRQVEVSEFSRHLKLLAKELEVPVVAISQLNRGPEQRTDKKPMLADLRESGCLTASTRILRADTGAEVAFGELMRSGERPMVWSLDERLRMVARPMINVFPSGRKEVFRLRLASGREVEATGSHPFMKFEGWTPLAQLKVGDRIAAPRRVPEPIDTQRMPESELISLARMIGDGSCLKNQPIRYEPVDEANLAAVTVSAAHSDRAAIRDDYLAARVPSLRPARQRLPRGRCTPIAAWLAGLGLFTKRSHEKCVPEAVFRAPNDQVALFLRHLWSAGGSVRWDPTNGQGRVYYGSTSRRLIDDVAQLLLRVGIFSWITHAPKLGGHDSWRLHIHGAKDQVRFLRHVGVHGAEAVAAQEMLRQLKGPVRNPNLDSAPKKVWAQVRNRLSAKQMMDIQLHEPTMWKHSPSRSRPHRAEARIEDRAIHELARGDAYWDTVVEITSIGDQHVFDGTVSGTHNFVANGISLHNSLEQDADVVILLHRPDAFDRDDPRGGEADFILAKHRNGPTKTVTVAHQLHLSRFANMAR

[20] = inhibitors of SNCA 5'UTR-driven reporter translation, confirmation, H4 neuroglioma cells, luminescence (AID 1988); type: functional, cell-based

T2 sequence (P41145 whole entry): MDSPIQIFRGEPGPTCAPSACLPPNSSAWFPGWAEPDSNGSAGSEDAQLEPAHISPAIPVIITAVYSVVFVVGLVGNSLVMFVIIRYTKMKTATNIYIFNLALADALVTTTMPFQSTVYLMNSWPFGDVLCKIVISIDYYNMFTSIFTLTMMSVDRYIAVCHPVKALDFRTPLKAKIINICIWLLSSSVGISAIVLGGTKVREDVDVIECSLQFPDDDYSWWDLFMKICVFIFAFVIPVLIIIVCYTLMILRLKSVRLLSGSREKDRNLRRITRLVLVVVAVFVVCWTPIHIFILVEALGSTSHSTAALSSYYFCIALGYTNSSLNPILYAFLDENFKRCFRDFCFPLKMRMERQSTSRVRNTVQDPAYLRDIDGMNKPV
Sequence of Beta-galactosidase (Q8VNN2 whole entry): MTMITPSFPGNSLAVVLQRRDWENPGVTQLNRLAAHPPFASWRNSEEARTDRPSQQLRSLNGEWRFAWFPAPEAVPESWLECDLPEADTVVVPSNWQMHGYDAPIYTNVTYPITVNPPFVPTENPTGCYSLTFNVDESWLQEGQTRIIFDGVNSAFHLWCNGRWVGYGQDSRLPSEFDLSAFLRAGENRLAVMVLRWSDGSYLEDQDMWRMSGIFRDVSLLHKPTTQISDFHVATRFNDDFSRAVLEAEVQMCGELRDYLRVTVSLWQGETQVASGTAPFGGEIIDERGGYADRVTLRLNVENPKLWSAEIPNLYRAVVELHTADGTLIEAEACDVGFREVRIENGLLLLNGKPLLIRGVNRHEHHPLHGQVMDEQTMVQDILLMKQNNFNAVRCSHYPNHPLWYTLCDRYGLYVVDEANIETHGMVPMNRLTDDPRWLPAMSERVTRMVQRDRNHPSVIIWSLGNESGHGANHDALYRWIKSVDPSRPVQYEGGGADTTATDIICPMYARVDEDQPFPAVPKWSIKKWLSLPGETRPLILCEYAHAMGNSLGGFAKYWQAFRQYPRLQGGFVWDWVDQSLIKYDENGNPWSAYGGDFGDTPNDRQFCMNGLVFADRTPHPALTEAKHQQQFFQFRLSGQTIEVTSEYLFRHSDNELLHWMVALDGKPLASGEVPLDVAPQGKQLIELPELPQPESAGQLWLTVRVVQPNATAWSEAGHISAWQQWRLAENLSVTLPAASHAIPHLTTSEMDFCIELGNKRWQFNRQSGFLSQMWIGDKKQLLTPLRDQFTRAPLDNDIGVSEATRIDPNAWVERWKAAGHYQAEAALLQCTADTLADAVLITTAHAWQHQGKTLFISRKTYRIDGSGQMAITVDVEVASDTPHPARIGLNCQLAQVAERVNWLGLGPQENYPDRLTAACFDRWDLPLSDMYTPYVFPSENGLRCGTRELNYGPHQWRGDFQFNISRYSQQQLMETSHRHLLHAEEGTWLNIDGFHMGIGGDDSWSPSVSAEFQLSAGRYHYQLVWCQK
Sequence of Cytochrome P450 3A4 (P08684 whole entry): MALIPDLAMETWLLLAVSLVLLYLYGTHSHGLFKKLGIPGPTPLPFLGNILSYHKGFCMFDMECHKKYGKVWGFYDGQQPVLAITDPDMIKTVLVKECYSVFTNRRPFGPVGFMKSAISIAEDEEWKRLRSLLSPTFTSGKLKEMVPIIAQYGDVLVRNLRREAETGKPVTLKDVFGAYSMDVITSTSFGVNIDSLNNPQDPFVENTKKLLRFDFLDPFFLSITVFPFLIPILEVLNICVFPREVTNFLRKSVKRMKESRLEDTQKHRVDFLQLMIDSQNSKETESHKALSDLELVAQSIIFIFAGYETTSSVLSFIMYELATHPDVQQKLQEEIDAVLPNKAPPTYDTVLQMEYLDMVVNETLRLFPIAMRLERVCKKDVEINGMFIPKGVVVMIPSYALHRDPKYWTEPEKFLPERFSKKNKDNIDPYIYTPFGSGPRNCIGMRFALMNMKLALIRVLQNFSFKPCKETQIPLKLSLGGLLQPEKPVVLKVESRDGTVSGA

COC1=CC(=O)C=C(OC)C1=O [2,6-DIMETHOXYQUINONE]
GI50 [1]: 7.38 µM (inactive) | GI50 [2]: 0.401 µM (active) | IC50 [3]: 2.49 µM (active) | AC50 [4]: 25.1 µM (inconclusive) | GI50 [5]: 0.457 µM (active)

Oc1ccc2c3c1O[C@H]1c4oc5ccccc5c4C[C@@]4(O)[C@@H](C2)N(CC2CC2)CC[C@]314
EC50 [6]: > 31.5 µM (inactive) | IC50 [7]: < 0.5 µM | IC50 [8]: 0.699 µM (active)

CCOc1ccc(-n2c(C)cc(C(=O)CCl)c2C)cc1
EC50 [9]: > 120 µM (not active) | EC50 [10]: 11.7 µM (active) | EC50 [11]: 4.29 µM (active) | IC50 [3]: 47.7 µM (inactive) | AC50 [12]: 4.59 µM (active) | EC50 [13]: 4.84 µM (active) | EC50 [14]: 9.56 µM (active) | EC50 [15]: 9.67 µM (inconclusive) | EC50 [16]: > 38 µM (not active) | EC50 [17]: 15 µM (active) | EC50 [18]: 4.21 µM (inconclusive) | AC50 [19]: 8.96 µM (active) | EC50 [20]: > 120 µM (not active)
